In the supplement of paper PMC10307832:

How the values were obtained:
Assay in all cases: relative viability (nuclei count vs DMSO), 5 days (fraction); higher = more cells survive
QS11 + Luminespib = compound: C1CC2=C(C1)C=C(C=C2)OC3=NC(=C4C(=N3)N(C=N4)CC5=CC=C(C=C5)C6=CC=CC=C6)N[C@@H](CC7=CC=CC=C7)CO [QS11] + CCNC(=O)c1noc(-c2cc(C(C)C)c(O)cc2O)c1-c1ccc(CN2CCOCC2)cc1 [Luminespib] (partner 0.01 µM)
Procedure, shortened: (§1)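 Lung cancer cell lines were seeded in 1536-well plates and dosed by pin tool the next day, with either a single drug or a fixed anchor-drug dose combined with five library-drug doses (not always all listed) spaced in √10 steps. Five days later, one step fixed the cells and stained their nuclei (final 0.05% Triton X-100, 1% formaldehyde, 1 ug/ml Hoechst), and nuclei were counted on 4× images. Relative viability is the nuclei count in treated wells divided by the count in vehicle wells, and each value is the median of duplicate plates.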

QS11 + Lapatinib = compound: C1CC2=C(C1)C=C(C=C2)OC3=NC(=C4C(=N3)N(C=N4)CC5=CC=C(C=C5)C6=CC=CC=C6)N[C@@H](CC7=CC=CC=C7)CO [QS11] + CS(=O)(=O)CCNCc1ccc(-c2ccc3ncnc(Nc4ccc(OCc5cccc(F)c5)c(Cl)c4)c3c2)o1 [Lapatinib] (partner 2 µM)
Procedure, shortened: as §1

AZ628 + Navitoclax = compound: CC1=C(C=C(C=C1)NC(=O)C2=CC(=CC=C2)C(C)(C)C#N)NC3=CC4=C(C=C3)N=CN(C4=O)C [AZ628] + CC1(C)CCC(c2ccc(Cl)cc2)=C(CN2CCN(c3ccc(C(=O)NS(=O)(=O)c4ccc(N[C@H](CCN5CCOCC5)CSc5ccccc5)c(S(=O)(=O)C(F)(F)F)c4)cc3)CC2)C1 [Navitoclax] (partner 0.5 µM)
Procedure, shortened: as §1

Darinaparsin + OSI-027 = compound: C[As](C)SC[C@H](NC(=O)CC[C@H](N)C(=O)O)C(=O)NCC(=O)O [Darinaparsin] + COc1cccc2cc(-c3nc([C@H]4CC[C@H](C(=O)O)CC4)n4ncnc(N)c34)[nH]c12 [OSI-027] (partner 0.5 µM)
Procedure, shortened: as §1

BEN was tested, and the relative viability (QS11 + Luminespib; first compound 0.08 µM) was 0.241, the relative viability (QS11 + Luminespib; first compound 0.253 µM) was 0.567 and the relative viability (QS11 + Luminespib; first compound 0.8 µM) was 0.366. It also gave a relative viability (QS11 + Luminespib; first compound 2.53 µM) of 0.507, a relative viability (QS11 + Luminespib; first compound 8 µM) of 0.31 and a relative viability (QS11 + Lapatinib; first compound 0.08 µM) of 0.555. It also gave a relative viability (QS11 + Lapatinib; first compound 0.253 µM) of 0.89, a relative viability (QS11 + Lapatinib; first compound 0.8 µM) of 0.864 and a relative viability (QS11 + Lapatinib; first compound 2.53 µM) of 0.781. It also gave a relative viability (QS11 + Lapatinib; first compound 8 µM) of 1.19, a relative viability (AZ628 + Navitoclax; first compound 0.08 µM) of 0.0576 and a relative viability (AZ628 + Navitoclax; first compound 0.253 µM) of 0.0642. It also gave a relative viability (AZ628 + Navitoclax; first compound 0.8 µM) of 0.0651, a relative viability (AZ628 + Navitoclax; first compound 2.53 µM) of 0.0689 and a relative viability (AZ628 + Navitoclax; first compound 8 µM) of 0.0471. It also gave a relative viability (Darinaparsin + OSI-027; first compound 0.08 µM) of 0.312, a relative viability (Darinaparsin + OSI-027; first compound 0.8 µM) of 0.306 and a relative viability (Darinaparsin + OSI-027; first compound 2.53 µM) of 0.281. It also gave a relative viability (Darinaparsin + OSI-027; first compound 8 µM) of 0.299.
With NCI-H520 the relative viability (QS11 + Luminespib; first compound 0.08 µM) was 0.25, the relative viability (QS11 + Luminespib; first compound 0.253 µM) was 0.369 and the relative viability (QS11 + Luminespib; first compound 0.8 µM) was 0.228. It also gave a relative viability (QS11 + Luminespib; first compound 2.53 µM) of 0.231, a relative viability (QS11 + Luminespib; first compound 8 µM) of 0.209 and a relative viability (QS11 + Lapatinib; first compound 0.253 µM) of 1.05. For the same cell line, the relative viability (QS11 + Lapatinib; first compound 0.8 µM) was 0.863, the relative viability (QS11 + Lapatinib; first compound 2.53 µM) was 0.99 and the relative viability (QS11 + Lapatinib; first compound 8 µM) was 1.13. It also gave a relative viability (AZ628 + Navitoclax; first compound 0.08 µM) of 1.18, a relative viability (AZ628 + Navitoclax; first compound 0.253 µM) of 0.842 and a relative viability (AZ628 + Navitoclax; first compound 0.8 µM) of 1.05. The relative viability (AZ628 + Navitoclax; first compound 2.53 µM) was 0.968, the relative viability (AZ628 + Navitoclax; first compound 8 µM) was 0.772 and the relative viability (Darinaparsin + OSI-027; first compound 0.08 µM) was 0.362. For the same cell line, the relative viability (Darinaparsin + OSI-027; first compound 0.8 µM) was 0.302, the relative viability (Darinaparsin + OSI-027; first compound 2.53 µM) was 0.185 and the relative viability (Darinaparsin + OSI-027; first compound 8 µM) was 0.302.
In the case of NCI-H2405, the relative viability (QS11 + Luminespib; first compound 0.08 µM) is reported as 0.516, the relative viability (QS11 + Luminespib; first compound 0.253 µM) is reported as 0.756 and the relative viability (QS11 + Luminespib; first compound 0.8 µM) is reported as 0.646. The relative viability (QS11 + Luminespib; first compound 2.53 µM) was 0.835, the relative viability (QS11 + Luminespib; first compound 8 µM) was 0.89 and the relative viability (QS11 + Lapatinib; first compound 0.08 µM) was 0.951. For the same cell line, the relative viability (QS11 + Lapatinib; first compound 0.253 µM) was 1.02, the relative viability (QS11 + Lapatinib; first compound 0.8 µM) was 1.02 and the relative viability (QS11 + Lapatinib; first compound 2.53 µM) was 1.29. For the same cell line, the relative viability (QS11 + Lapatinib; first compound 8 µM) was 1.07, the relative viability (AZ628 + Navitoclax; first compound 0.08 µM) was 0.49 and the relative viability (AZ628 + Navitoclax; first compound 0.253 µM) was 0.64. The relative viability (AZ628 + Navitoclax; first compound 0.8 µM) was 0.53, the relative viability (AZ628 + Navitoclax; first compound 2.53 µM) was 0.415 and the relative viability (AZ628 + Navitoclax; first compound 8 µM) was 0.575. It also gave a relative viability (Darinaparsin + OSI-027; first compound 0.08 µM) of 0.629, a relative viability (Darinaparsin + OSI-027; first compound 0.8 µM) of 0.614 and a relative viability (Darinaparsin + OSI-027; first compound 2.53 µM) of 0.545. The relative viability (Darinaparsin + OSI-027; first compound 8 µM) was 0.658.
Cell Line NCI-H2087 has a relative viability (QS11 + Luminespib; first compound 0.08 µM) of 0.136, a relative viability (QS11 + Luminespib; first compound 0.253 µM) of 0.186 and a relative viability (QS11 + Luminespib; first compound 2.53 µM) of 0.158. For the same cell line, the relative viability (QS11 + Luminespib; first compound 8 µM) was 0.172, the relative viability (QS11 + Lapatinib; first compound 0.08 µM) was 0.996 and the relative viability (QS11 + Lapatinib; first compound 0.253 µM) was 1.09. For the same cell line, the relative viability (QS11 + Lapatinib; first compound 0.8 µM) was 0.728, the relative viability (QS11 + Lapatinib; first compound 2.53 µM) was 0.651 and the relative viability (QS11 + Lapatinib; first compound 8 µM) was 0.688. It also gave a relative viability (AZ628 + Navitoclax; first compound 0.08 µM) of 0.746, a relative viability (AZ628 + Navitoclax; first compound 0.253 µM) of 0.676 and a relative viability (AZ628 + Navitoclax; first compound 0.8 µM) of 0.64. It also gave a relative viability (AZ628 + Navitoclax; first compound 2.53 µM) of 0.669, a relative viability (AZ628 + Navitoclax; first compound 8 µM) of 0.267 and a relative viability (Darinaparsin + OSI-027; first compound 0.08 µM) of 0.604. It also gave a relative viability (Darinaparsin + OSI-027; first compound 0.8 µM) of 0.67, a relative viability (Darinaparsin + OSI-027; first compound 2.53 µM) of 0.527 and a relative viability (Darinaparsin + OSI-027; first compound 8 µM) of 0.705.
In the case of NCI-H460, the relative viability (QS11 + Luminespib; first compound 0.08 µM) is reported as 0.0331, the relative viability (QS11 + Luminespib; first compound 0.253 µM) is reported as 0.0356 and the relative viability (QS11 + Luminespib; first compound 0.8 µM) is reported as 0.0316. For the same cell line, the relative viability (QS11 + Luminespib; first compound 2.53 µM) was 0.0243, the relative viability (QS11 + Luminespib; first compound 8 µM) was 0.0438 and the relative viability (QS11 + Lapatinib; first compound 0.08 µM) was 1.4. It also gave a relative viability (QS11 + Lapatinib; first compound 0.253 µM) of 1.14, a relative viability (QS11 + Lapatinib; first compound 0.8 µM) of 0.567 and a relative viability (QS11 + Lapatinib; first compound 2.53 µM) of 0.686. It also gave a relative viability (QS11 + Lapatinib; first compound 8 µM) of 0.24, a relative viability (AZ628 + Navitoclax; first compound 0.08 µM) of 1.2 and a relative viability (AZ628 + Navitoclax; first compound 0.253 µM) of 1.18. It also gave a relative viability (AZ628 + Navitoclax; first compound 0.8 µM) of 1.09, a relative viability (AZ628 + Navitoclax; first compound 2.53 µM) of 1.09 and a relative viability (AZ628 + Navitoclax; first compound 8 µM) of 0.561. For the same cell line, the relative viability (Darinaparsin + OSI-027; first compound 0.08 µM) was 0.98, the relative viability (Darinaparsin + OSI-027; first compound 0.8 µM) was 0.753 and the relative viability (Darinaparsin + OSI-027; first compound 2.53 µM) was 0.537. For the same cell line, the relative viability (Darinaparsin + OSI-027; first compound 8 µM) was 1.19.
NCI-H1650 gave a relative viability (QS11 + Luminespib; first compound 0.08 µM) of 0.193, a relative viability (QS11 + Luminespib; first compound 0.253 µM) of 0.209 and a relative viability (QS11 + Luminespib; first compound 0.8 µM) of 0.201. The relative viability (QS11 + Luminespib; first compound 2.53 µM) was 0.192, the relative viability (QS11 + Luminespib; first compound 8 µM) was 0.216 and the relative viability (QS11 + Lapatinib; first compound 0.08 µM) was 0.746. For the same cell line, the relative viability (QS11 + Lapatinib; first compound 0.253 µM) was 0.643, the relative viability (QS11 + Lapatinib; first compound 0.8 µM) was 0.673 and the relative viability (QS11 + Lapatinib; first compound 2.53 µM) was 0.731. For the same cell line, the relative viability (QS11 + Lapatinib; first compound 8 µM) was 0.708, the relative viability (AZ628 + Navitoclax; first compound 0.08 µM) was 1.34 and the relative viability (AZ628 + Navitoclax; first compound 0.253 µM) was 1.22. The relative viability (AZ628 + Navitoclax; first compound 0.8 µM) was 1.38, the relative viability (AZ628 + Navitoclax; first compound 2.53 µM) was 1.15 and the relative viability (AZ628 + Navitoclax; first compound 8 µM) was 0.949. The relative viability (Darinaparsin + OSI-027; first compound 0.08 µM) was 0.567, the relative viability (Darinaparsin + OSI-027; first compound 0.8 µM) was 0.612 and the relative viability (Darinaparsin + OSI-027; first compound 2.53 µM) was 0.504. For the same cell line, the relative viability (Darinaparsin + OSI-027; first compound 8 µM) was 0.757.
